Data as given in patent US9944639B2, “Quinolizinone derivatives as PI3K inhibitors” (Lupin Limited, priority 2014, dated 2018).
pIC50: −log10 of the molar value.

Target: T1, PI3Kδ (Homo sapiens, UniProt O00329)
T1 construct: endogenous in cells; host or cells: Raji cells
Assay: Cell Based Assay for PI3Kδ (AKT phosphorylation, AlphaScreen SureFire, anti-IgM stimulated Raji cells)
Conditions: compounds 1 h, anti-IgM (3 μg/mL) 30 min, phosphorylation of AKT, read-out: PI3Kδ inhibition IC50
Procedure: [formula] C) Cell Based Assay for PI3Kδ
Raji cells were maintained in RPMI-1640 (Sigma) supplemented with 10% fetal bovine serum (heat inactivated) (FBS, Sigma), 100 U penicillin/mL, and […] streptomycin and incubated at 37° C. and 5% CO2. Cells were centrifuged and resuspended in a complete medium. The required numbers of cells were transferred to a tissue culture flask containing medium without serum for 1 h at 37° C., 5% CO2. Following 1 h serum starvation, cells were centrifuged and resuspended in Hank's Balanced Salt Solution (HBSS, Sigma) and seeded in at a density of 1 million cells/well in 96-well clear bottom plates. The cells were treated with test compounds for 1 h at 37° C., 5% CO2. Cells were then stimulated with anti-IgM (3 μg/mL) for 30 min. After Stimulation, cells were lysed with 15 μL of 5× lysis buffer and the plate was shaken on an orbital plate shaker at approximately 300 rpm for 10 min. AlphaScreen® SureFire® Cell-based Assay (Perkin-Elmer, Waltham, Mass., USA) was performed to measure phosphorylation of AKT, in the cells according to the manufacturer's instructions. The luminescence was measured using an alpha technology-compatible plate reader BMG Labtech, Germany) at 520-620 nm. Percentage inhibition was calculated according to formula: […]
IC50 values were calculated by plotting % inhibition against the respective concentrations of test compounds using GraphPad Prism 5.

T1 sequence (O00329 whole entry): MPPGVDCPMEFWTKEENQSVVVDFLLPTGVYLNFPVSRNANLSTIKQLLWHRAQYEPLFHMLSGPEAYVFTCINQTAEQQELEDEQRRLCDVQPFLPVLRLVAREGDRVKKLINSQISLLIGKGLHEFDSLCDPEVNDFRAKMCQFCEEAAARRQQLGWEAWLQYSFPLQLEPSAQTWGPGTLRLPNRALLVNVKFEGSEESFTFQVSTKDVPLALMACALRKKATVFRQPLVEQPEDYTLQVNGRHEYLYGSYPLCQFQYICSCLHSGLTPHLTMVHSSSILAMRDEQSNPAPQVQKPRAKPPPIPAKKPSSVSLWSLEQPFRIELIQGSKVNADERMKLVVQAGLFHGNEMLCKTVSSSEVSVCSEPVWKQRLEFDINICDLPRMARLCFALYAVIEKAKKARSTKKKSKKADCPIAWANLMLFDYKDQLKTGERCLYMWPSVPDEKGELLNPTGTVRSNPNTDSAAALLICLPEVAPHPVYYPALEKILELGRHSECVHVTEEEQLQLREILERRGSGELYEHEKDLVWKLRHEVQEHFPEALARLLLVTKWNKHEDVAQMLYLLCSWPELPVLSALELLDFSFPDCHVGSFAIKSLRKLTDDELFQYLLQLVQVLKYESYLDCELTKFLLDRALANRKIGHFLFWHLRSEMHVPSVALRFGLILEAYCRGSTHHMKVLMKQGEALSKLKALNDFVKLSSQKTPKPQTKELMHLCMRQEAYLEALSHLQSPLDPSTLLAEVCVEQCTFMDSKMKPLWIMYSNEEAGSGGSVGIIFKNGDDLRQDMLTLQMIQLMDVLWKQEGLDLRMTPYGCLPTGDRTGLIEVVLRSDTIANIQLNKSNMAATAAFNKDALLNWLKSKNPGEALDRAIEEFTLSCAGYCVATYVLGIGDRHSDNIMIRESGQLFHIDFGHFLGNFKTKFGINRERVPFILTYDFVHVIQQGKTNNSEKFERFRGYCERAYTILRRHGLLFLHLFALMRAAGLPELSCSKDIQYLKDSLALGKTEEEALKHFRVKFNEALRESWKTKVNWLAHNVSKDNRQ
T1 sequence (P27986 whole entry partner): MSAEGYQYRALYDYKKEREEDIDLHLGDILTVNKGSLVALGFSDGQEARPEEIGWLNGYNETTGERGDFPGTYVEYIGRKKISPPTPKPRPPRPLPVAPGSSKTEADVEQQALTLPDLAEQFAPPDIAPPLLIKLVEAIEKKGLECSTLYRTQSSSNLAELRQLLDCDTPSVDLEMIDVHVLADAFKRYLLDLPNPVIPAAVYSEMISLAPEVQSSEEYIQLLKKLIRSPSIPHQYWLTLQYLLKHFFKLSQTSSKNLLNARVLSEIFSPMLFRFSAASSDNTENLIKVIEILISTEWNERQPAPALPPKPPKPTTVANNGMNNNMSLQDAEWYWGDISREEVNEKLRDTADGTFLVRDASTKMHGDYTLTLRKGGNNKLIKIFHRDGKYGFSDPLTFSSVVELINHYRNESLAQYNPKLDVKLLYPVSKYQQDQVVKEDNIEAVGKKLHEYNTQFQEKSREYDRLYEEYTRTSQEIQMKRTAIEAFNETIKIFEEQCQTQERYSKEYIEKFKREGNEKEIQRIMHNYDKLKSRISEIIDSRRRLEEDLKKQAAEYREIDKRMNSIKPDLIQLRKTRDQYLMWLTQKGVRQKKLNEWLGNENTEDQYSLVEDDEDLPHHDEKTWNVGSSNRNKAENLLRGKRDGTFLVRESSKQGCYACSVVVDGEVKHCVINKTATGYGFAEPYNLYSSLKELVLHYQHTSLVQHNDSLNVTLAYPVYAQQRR

Compound | pIC50
C[C@H](Nc1ncnc2[nH]cc(C#N)c12)c1cc2ccc(F)cn2c(=O)c1-c1ccccc1 [Compound 28, (S)-4-((1-(7-fluoro-4-oxo-3-phenyl-4H-quinolizin-2-yl)ethyl)amino)-7H-pyrrolo[2,3-d]pyrimidine-5-carbonitrile] | 8.00 to 10.00
C[C@H](Nc1ncnc2[nH]cc(F)c12)c1cc2ccc(F)cn2c(=O)c1-c1ccccc1 [Compound 40, (S)-7-fluoro-2-(1-((5-fluoro-7H-pyrrolo[2,3-d]pyrimidin-4-yl)amino)ethyl)-3-phenyl-4H-quinolizin-4-one] | 8.00 to 10.00
C[C@H](Nc1nc(N)nc2[nH]cnc12)c1cc2ccc(F)cn2c(=O)c1-c1cc(F)cc(F)c1 [Compound 51, (S)-2-(1-((2-amino-9H-purin-6-yl)amino)ethyl)-3-(3,5-difluorophenyl)-7-fluoro-4H-quinolizin-4-one] | 7.30 to 7.96
Cc1cccc2cc([C@H](C)Nc3ncnc4[nH]cnc34)c(-c3cccc(F)c3)c(=O)n12 (single isomer, unassigned) [Compound 11a, 2-(1-((9H-purin-6-yl)amino)ethyl)-3-(3-fluorophenyl)-6-methyl-4H-quinolizin-4-one] | 8.00 to 10.00
CC[C@H](Nc1nc(N)nc(N)c1C#N)c1cc2ccc(F)cn2c(=O)c1-c1ccccc1 (single isomer, unassigned) [Compound 42a, 2,4-diamino-6-((1-(7-fluoro-4-oxo-3-phenyl-4H-quinolizin-2-yl)propyl)amino)pyrimidine-5-carbonitrile] | 8.00 to 10.00
C[C@H](Nc1ncnc2[nH]cnc12)c1cc2ccc(F)cn2c(=O)c1-c1cc(F)cc(F)c1 [Compound 50, (S)-2-(1-((9H-purin-6-yl)amino)ethyl)-3-(3,5-difluorophenyl)-7-fluoro-4H-quinolizin-4-one] | 7.30 to 7.96
C[C@H](Nc1ncnc(N)c1C#N)c1cc2ccc(F)cn2c(=O)c1-c1ccccc1 (single isomer, unassigned) [Compound 14a] | 7.30 to 7.96
Cc1cc(F)cc(-c2c([C@H](C)Nc3ncnc(N)c3C#N)cc3ccc(F)cn3c2=O)c1 [Compound 29, (S)-4-amino-6-((1-(7-fluoro-3-(3-fluoro-5-methylphenyl)-4-oxo-4H-quinolizin-2-yl)ethyl)amino)pyrimidine-5-carbonitrile] | 7.30 to 7.96
C[C@H](Nc1nc(N)ncc1C#N)c1cc2ccc(F)cn2c(=O)c1-c1cccc(F)c1 (single isomer, unassigned) [Compound 20a, 2-Amino-4-((1-(7-fluoro-3-(3-fluorophenyl)-4-oxo-4H-quinolizin-2-yl)ethyl)amino)pyrimidine-5-carbonitrile] | 7.30 to 7.96
Cc1cccc2cc([C@H](C)Nc3ncnc(N)c3C#N)c(-c3cccc(F)c3)c(=O)n12 (single isomer, unassigned) [Compound 10a, 4-Amino-6-((1-(3-(3-fluorophenyl)-6-methyl-4-oxo-4H-quinolizin-2-yl)ethyl)amino)pyrimidine-5-carbonitrile] | 8.00 to 10.00
Cc1nc(N)nc(N[C@@H](C)c2cc3ccc(F)cn3c(=O)c2-c2cccc(F)c2)c1C#N (single isomer, unassigned) [Compound 21a, 2-Amino-4-((1-(7-fluoro-3-(3-fluorophenyl)-4-oxo-4H-quinolizin-2-yl)ethyl)amino)-6-methylpyrimidine-5-carbonitrile] | 8.00 to 10.00
COc1ncc(-c2nn([C@@H](C)c3cc4ccc(F)cn4c(=O)c3-c3ccccc3)c3ncnc(N)c23)cc1NS(C)(=O)=O (single isomer, unassigned) [Compound 67a, N-(5-(4-amino-1-(1-(7-fluoro-4-oxo-3-phenyl-4H-quinolizin-2-yl)ethyl)-1H-pyrazolo[3,4-d]pyrimidin-3-yl)-2-methoxypyridin-3-yl)methanesulfonamide] | 8.00 to 10.00
C[C@H](Nc1ncnc(N)c1C#N)c1cc2ccc(F)cn2c(=O)c1-c1ccc(F)cc1 [Compound 36, (S)-4-amino-6-((1-(7-fluoro-3-(4-fluorophenyl)-4-oxo-4H-quinolizin-2-yl)ethyl)amino)pyrimidine-5-carbonitrile] | 7.30 to 7.96
Cc1c(F)ccc2cc([C@H](C)Nc3ncnc4[nH]cnc34)c(-c3ccccc3)c(=O)n12 (single isomer, unassigned) [Compound 24a, 2-(1-((9H-purin-6-yl)amino)ethyl)-7-fluoro-6-methyl-3-phenyl-4H-quinolizin-4-one] | 8.00 to 10.00
CC(c1cc2ccc(F)cn2c(=O)c1-c1ccccc1)n1nc(-c2cccc(O)c2)c2c(N)ncnc21 (centres unmarked) [Compound 62, 2-(1-(4-amino-3-(3-hydroxyphenyl)-1H-pyrazolo[3,4-d]pyrimidin-1-yl)ethyl)-7-fluoro-3-phenyl-4H-quinolizin-4-one] | 8.00 to 10.00
Cc1cccc2cc([C@H](C)Nc3ncnc(N)c3C#N)c(-c3cc(F)cc(F)c3)c(=O)n12 (single isomer, unassigned) [Compound 17a, 4-Amino-6-((1-(3-(3,5-difluorophenyl)-6-methyl-4-oxo-4H-quinolizin-2-yl)ethyl)amino)pyrimidine-5-carbonitrile] | 8.00 to 10.00
CC[C@H](Nc1ncnc(N)c1C#N)c1cc2ccc(F)cn2c(=O)c1-c1cccc(F)c1 (single isomer, unassigned) [Compound 44a, 4-Amino-6-((1-(7-fluoro-3-(3-fluorophenyl)-4-oxo-4H-quinolizin-2-yl)propyl)amino)pyrimidine-5-carbonitrile] | 7.30 to 7.96
Cc1cccc2cc([C@H](C)Nc3nc(N)nc4[nH]cnc34)c(-c3cccc(F)c3)c(=O)n12 (single isomer, unassigned) [Compound 12a, 2-(1-((2-Amino-9H-purin-6-yl)amino)ethyl)-3-(3-fluorophenyl)-6-methyl-4H-quinolizin-4-one] | 8.00 to 10.00
CC[C@H](Nc1ncnc(N)c1C#N)c1cc2ccc(F)cn2c(=O)c1-c1ccccc1 (single isomer, unassigned) [Compound 41a, 4-Amino-6-((1-(7-fluoro-4-oxo-3-phenyl-4H-quinolizin-2-yl)propyl)amino)pyrimidine-5-carbonitrile] | 7.30 to 7.96
C[C@@H](c1cc2ccc(F)cn2c(=O)c1-c1ccccc1)n1nc(-c2cc(F)cc(NS(C)(=O)=O)c2)c2c(N)ncnc21 (single isomer, unassigned) [Compound 58a, N-(3-(4-amino-1-(1-(7-fluoro-4-oxo-3-phenyl-4H-quinolizin-2-yl)ethyl)-1H-pyrazolo[3,4-d]pyrimidin-3-yl)-5-fluorophenyl)methanesulfonamide] | 7.30 to 7.96
Cc1cccc(-c2c([C@H](C)Nc3ncnc(N)c3C#N)cc3ccc(F)cn3c2=O)c1 [Compound 31, (S)-4-amino-6-((1-(7-fluoro-4-oxo-3-(m-tolyl)-4H-quinolizin-2-yl)ethyl)amino)pyrimidine-5-carbonitrile] | 7.30 to 7.96
C[C@H](Nc1ncnc(N)c1C#N)c1cc2ccccn2c(=O)c1-c1cccc(F)c1 (single isomer, unassigned) [Compound 6a, 4-Amino-6-((1-(3-(3-fluorophenyl)-4-oxo-4H-quinolizin-2-yl)ethyl)amino)-pyrimidine-5-carbonitrile] | 8.00 to 10.00
C[C@H](Nc1ncnc2scnc12)c1cc2ccc(F)cn2c(=O)c1-c1ccccc1 [Compound 52, (S)-7-fluoro-3-phenyl-2-(1-(thiazolo[5,4-d]pyrimidin-7-ylamino)ethyl)-4H-quinolizin-4-one] | 8.00 to 10.00
C[C@H](Nc1nc(N)nc(Cl)c1C#N)c1cc2ccc(F)cn2c(=O)c1-c1ccccc1 [Compound 53, (S)-2-amino-4-chloro-6-((1-(7-fluoro-4-oxo-3-phenyl-4H-quinolizin-2-yl)ethyl)amino)pyrimidine-5-carbonitrile] | 8.00 to 10.00
Cc1cccc2cc([C@H](C)Nc3ncnc(N)c3C#N)c(-c3ccc(F)c(F)c3)c(=O)n12 (single isomer, unassigned) [Compound 19a, 4-Amino-6-((1-(3-(3,4-difluorophenyl)-6-methyl-4-oxo-4H-quinolizin-2-yl)ethyl)amino)pyrimidine-5-carbonitrile] | 7.30 to 7.96
CC(c1cc2ccc(F)cn2c(=O)c1-c1ccccc1)n1nc(-c2cc(O)cc(F)c2)c2c(N)ncnc21 (centres unmarked) [Compound 59, 2-(1-(4-amino-3-(3-fluoro-5-hydroxyphenyl)-1H-pyrazolo[3,4-d]pyrimidin-1-yl)ethyl)-7-fluoro-3-phenyl-4H-quinolizin-4-one] | 8.00 to 10.00
Cc1cccc2cc([C@H](C)Nc3nc(F)nc4[nH]cnc34)c(-c3ccccc3)c(=O)n12 (single isomer, unassigned) [Compound 9a, 2-(1-((2-Fluoro-9H-purin-6-yl)amino)ethyl)-6-methyl-3-phenyl-4H-quinolizin-4-one] | 8.00 to 10.00
COc1ccc(-c2nn([C@@H](C)c3cc4ccc(F)cn4c(=O)c3-c3ccccc3)c3ncnc(N)c23)cn1 (single isomer, unassigned) [Compound 64a, 2-(1-(4-amino-3-(6-methoxypyridin-3-yl)-1H-pyrazolo[3,4-d]pyrimidin-1-yl)ethyl)-7-fluoro-3-phenyl-4H-quinolizin-4-one] | 7.30 to 7.96
C[C@H](Nc1ncnc2[nH]cnc12)c1cc2ccccn2c(=O)c1-c1cccc(F)c1 (single isomer, unassigned) [Compound 5a, 2-(1-((9H-purin-6-yl)amino)ethyl)-3-(3-fluorophenyl)-4H-quinolizin-4-one] | 6.60 to 7.29
